From patent US20090270382A1, “Soluble epoxide hydrolase inhibitors” (Arete Therapeutics, Inc., priority 2008, published 2009)

Key:
[1] = system: soluble epoxide hydrolase (sEH); test: Fluorescent assay for mouse and human soluble epoxide hydrolase (CMNPC substrate); type: biochemical
Description: Fluorescent Assay for Mouse and Human Soluble Epoxide Hydrolase Recombinant mouse sEH (MsEH) and human sEH (HsEH) were produced in a baculovirus expression system as previously reported. Grant et al., J. Biol. Chem., 268:17628-17633 (1993); Beetham et al., Arch. Biochem. Biophys., 305:197-201 (1993). The expressed proteins were purified from cell lysate by affinity chromatography. Wixtrom et al., Anal. Biochem., 169:71-80 (1988). Protein concentration was quantified using the Pierce BCA assay using bovine serum albumin as the calibrating standard. The preparations were at least 97% pure as judged by SDS-PAGE and scanning densitometry. They contained no detectable esterase or glutathione transferase activity which can interfere with the assay. The assay was also evaluated with similar results in crude cell lysates or homogenate of tissues. The IC50s for each inhibitor were according to the following procedure: […] Jones P. D. et. al.; Analytical Biochemistry 2005; 343: pp. 66-75) Bis/Tris HCl 25 mM pH 7.0 containing 0.1 mg/mL of BSA (buffer […] at 0.25 mM in DMSO. Mother solution of enzyme in buffer A (Mouse sEH at 6 μg/mL and Human sEH at 5 μg/mL). Inhibitor dissolved in DMSO at the appropriate concentration. In a black 96 well plate, fill all the wells with 150 μL of buffer A. Add 2 μL of DMSO in well A2 and A3, and then add 2 μL of inhibitor solution in A1 and A4 through A12. Add 150 μL of buffer A in row A, then mix several time and transfer 150 μL to row B. Repeat this operation up to row H. The 150 μL removed from row H is discarded. Add 20 μL of buffer A in column 1 and 2, then add 20 μL of enzyme solution to column 3 to 12. Incubate the plate for 5 minutes in the plate reader at 30° C. During incubation prepare the working solution of substrate by mixing 3.68 mL of buffer A (4×0.920 mL) with 266 μL (2×133 μL) of substrate solution). At t=0, add 30 μL of working substrate solution with multi-channel pipette labeled “Briggs 303” and start the reading ([S]final: 5 μM). […] The velocities are used to analyze and calculate the IC50s.

Row | Compound | melting point [°C] | % Inhibition ([1]; compound concentration 200 nM) [%] | % Inhibition ([1]; compound concentration 2000 nM) [%]
1 | O=C(Nc1ccc(OC(F)(F)F)cc1)NC1CCN(C(=O)c2cncc(C(=O)O)c2)CC1 [Compound 1, 5-(4-(3-(4-(trifluoromethoxy)phenyl)ureido)piperidine-1-carbonyl)nicotinic acid] | 211 to 213 | 94 | –
2 | COc1ncccc1C(=O)N1CCC(NC(=O)Nc2ccc(OC(F)(F)F)cc2)CC1 [Compound 5, 1-(1-(2-methoxynicotinoyl)piperidin-4-yl)-3-(4-(trifluoromethoxy)phenyl)urea] | 92 to 94 | 99 | –
3 | O=C(Nc1ccc(OC(F)(F)F)cc1)NC1CCN(S(=O)(=O)c2cccnc2)CC1 [Compound 6, 1-(1-(pyridin-3-ylsulfonyl)piperidin-4-yl)-3-(4-(trifluoromethoxy)phenyl)urea] | 217 to 219 | 96 | –
4 | O=C(Nc1cccc(OC(F)(F)F)c1)NC1CCN(C(=O)c2cccnc2)CC1 [Compound 10, 1-(1-nicotinoylpiperidin-4-yl)-3-(3-(trifluoromethoxy)phenyl)urea] | – | – | 99
5 | O=C(Nc1ccc(OC(F)(F)F)cc1)NC1CCN(C(=O)Cc2ccccn2)CC1 [Compound 11, 1-(1-(2-(pyridin-2-yl)acetyl)piperidin-4-yl)-3-(4-(trifluoromethoxy)phenyl)urea] | – | – | 100
6 | O=C(Nc1ccc(OC(F)(F)F)cc1)NC1CCN(C(=O)c2cnccc2C(F)(F)F)CC1 [Compound 13, 1-(4-(trifluoromethoxy)phenyl)-3-(1-(4-(trifluoromethyl)nicotinoyl)piperidin-4-yl)urea] | 89 to 91 | – | 99
7 | O=C(Nc1ccc(OC(F)(F)F)cc1)NC1CCN(C(=O)c2ccc(-c3ccccc3)nc2)CC1 [Compound 14, 1-(1-(6-phenylnicotinoyl)piperidin-4-yl)-3-(4-(trifluoromethoxy)phenyl)urea] | 230 to 232 | – | 100
8 | O=C(Nc1ccc(OC(F)(F)F)cc1)NC1CCN(C(=O)c2ccc(N3CCOCC3)nc2)CC1 [Compound 15, 1-(1-(6-morpholinonicotinoyl)pipendin-4-yl)-3-(4-(trifluoromethoxy)phenyl)urea] | 265 to 268 | – | 100
9 | O=C(Nc1ccc(OC(F)(F)F)cc1)NC1CCN(C(=O)c2ccc(Oc3ccccc3)nc2)CC1 [Compound 16, 1-(1-(6-phenoxynicotinoyl)piperidin-4-yl)-3-(4-(trifluoromethoxy)phenyl)urea] | 182 to 185 | – | 100
10 | CN1CCOc2cc(C(=O)N3CCC(NC(=O)Nc4ccc(OC(F)(F)F)cc4)CC3)cnc21 [Compound 17, 1-(1-(4-methyl-3,4-dihydro-2H-pyrido[3,2-b][1,4]oxazine-7-carbonyl)piperidin-4-yl)-3-(4-(trifluoromethoxy)phenyl)urea] | 212 to 214 | – | 100

Results, then the compound that gave them:

Row | melting point [°C] | % Inhibition ([1]; compound concentration 200 nM) [%] | % Inhibition ([1]; compound concentration 2000 nM) [%] | Compound
11 | 206 to 208 | 97 | – | O=C(Nc1ccc(OC(F)(F)F)cc1)NC1CCN(C(=O)c2ccc(C(F)(F)F)nc2)CC1 [Compound 2, 1-(4-(trifluoromethoxy)phenyl)-3-(1-(6-(trifluoromethyl)nicotinoyl)piperidin-4-yl)urea]
12 | 107 to 109 | 95 | – | Cc1ncccc1C(=O)N1CCC(NC(=O)Nc2ccc(OC(F)(F)F)cc2)CC1 [Compound 3, 1-(1-(2-methylnicotinoyl)piperidin-4-yl)-3-(4-(trifluoromethoxy)phenyl)urea]
13 | 206 to 208 | 97 | – | Cc1ccc(C(=O)N2CCC(NC(=O)Nc3ccc(OC(F)(F)F)cc3)CC2)cn1 [Compound 4, 1-(1-(6-methylnicotinoyl)piperidin-4-yl)-3-(4-(trifluoromethoxy)phenyl)urea]
14 | 156 to 157 | – | 98 | O=C(Nc1ccc(OC(F)(F)F)cc1)NC1CCN(C(=O)c2cncc(F)c2)CC1 [Compound 7, 1-(1-(5-fluoronicotinoyl)piperidin-4-yl)-3-(4-(trifluoromethoxy)phenyl)urea]
15 | – | – | 99 | O=C(Nc1ccc(OC(F)(F)F)cc1)NC1CCN(C(=O)c2ccncc2)CC1 [Compound 8, 1-(1-isonicotinoylpiperidin-4-yl)-3-(4-(trifluoromethoxy)phenyl)urea]
16 | 200 to 202 | – | 99 | COc1ccc(C(=O)N2CCC(NC(=O)Nc3ccc(OC(F)(F)F)cc3)CC2)cn1 [Compound 9, 1-(1-(6-methoxynicotinoyl)piperidin-4-yl)-3-(4-(trifluoromethoxy)phenyl)urea]
17 | – | – | 100 | O=C(Nc1ccc(OC(F)(F)F)cc1)NC1CCN(C(=O)c2cccnc2)CC1 [Compound 12, 1-(1-nicotinoylpiperidin-4-yl)-3-(4-(trifluoromethoxy)phenyl)urea]
18 | 213 to 215 | – | 97 | O=C(Nc1ccc(OC(F)(F)F)cc1)NC1CCN(C(=O)c2ccc(Cl)cn2)CC1 [Compound 18, 1-(1-(5-chloropicolinoyl)piperidin-4-yl)-3-(4-(trifluoromethoxy)phenyl)urea]
